Test results as given in patent publication US10906888B2, “Pyrimidine carboxamides as inhibitors of Vanin-1 enzyme” (Pfizer Inc., priority 2016, dated 2021).
pIC50: −log10 of the molar value.

Target: human vanin-1 (Homo sapiens (Human), UniProt O95497)
Assay: Human Vanin-1 Enzyme Assay 1
Type: biochemical
Details: 25 pM human vanin-1, 50 uM pantetheine 7-amino-4-trifluoromethylcoumarin substrate
Procedure: Human Vanin-1Enzyme Assay 1.
The in vitro assay measures enzymatic cleavage of the fluorescently-labeled vanin substrate, pantetheine 7-amino-4-trifluoromethylcoumarin, by human vanin-1.
The vanin-1 protein was prepared in-house from a construct expressing the extracellular domain of human vanin-1 (GenBank ID NM_004666) preceded N-terminally by the honey bee melittin signal peptide, a GSG linker sequence, a His6× tag and a FLAG tag. The secreted, soluble enzyme was purified from the conditioned medium from a CHO cell line stably expressing the resulting protein. Enzyme purification was performed through sequential Ni NTA and size-exclusion chromatography steps.
Intermediate concentrations were prepared by diluting in DMSO in a four-fold series for a total of 11 data points.
To begin the assay 100 nL was transferred from the compound plate to the assay plate. Next, 15 μL of the vanin-1 working solution were transferred to the assay plate. The inhibitor and enzyme were incubated at room temperature for 30 minutes. The enzyme reaction was then initiated by the addition of 5 μL of 200 μM pantetheine 7-amino-4-trifluoromethylcoumarin prepared in assay buffer. […] The final concentration of DMSO was 0.5%.

Sequence of human vanin-1 (O95497 22-491): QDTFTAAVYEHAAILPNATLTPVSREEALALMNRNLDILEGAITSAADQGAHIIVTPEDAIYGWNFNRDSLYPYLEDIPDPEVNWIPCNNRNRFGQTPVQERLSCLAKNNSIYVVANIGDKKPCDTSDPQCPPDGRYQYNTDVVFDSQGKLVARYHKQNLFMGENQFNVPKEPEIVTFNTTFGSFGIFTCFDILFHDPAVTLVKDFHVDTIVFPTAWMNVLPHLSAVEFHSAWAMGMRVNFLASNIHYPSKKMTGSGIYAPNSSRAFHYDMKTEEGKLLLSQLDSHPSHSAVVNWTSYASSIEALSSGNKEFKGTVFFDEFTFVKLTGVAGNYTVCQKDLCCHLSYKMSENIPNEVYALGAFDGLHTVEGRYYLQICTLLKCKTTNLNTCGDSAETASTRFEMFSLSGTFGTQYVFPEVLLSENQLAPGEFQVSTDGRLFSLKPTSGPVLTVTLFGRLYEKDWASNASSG

SMILES	pIC50
CC1(O)CCCN(C(=O)c2cnc(NCc3cccnc3)nc2)C1 (centres unmarked) [Example 26]	5.91
CC1(O)CCN(C(=O)c2cnc(NCc3cccnc3)nc2)CC1 [Example 9]	7.32
O=C(c1cnc(NC2(c3cncnc3)CC2)nc1)N1C[C@@H](CO)[C@H](C(F)(F)F)C1 [Example 53]	7.92
CCC1(CC)CCN(C(=O)c2cnc(NC3(c4cncnc4)CC3)nc2)C1 [Example 37]	9.30
O=C(c1cnc(NCc2cccnc2)nc1)N1CCCC2(COC2)C1 [Example 31]	5.51
CC(C)[C@H]1C[C@H](O)CN(C(=O)c2cnc(NC3(c4cncnc4)CC3)nc2)C1 [Example 72]	6.83
O=C(c1cnc(NC2(c3cncnc3)CC2)nc1)N1CCN2C[C@@H](F)C[C@H]2C1 [Example 35]	8.27
CCC1COC(=O)N1C1CCN(C(=O)c2cnc(NC3(c4cncnc4)CC3)nc2)CC1 (centres unmarked) [Example 36]	6.00
O=C(c1cnc(NCc2cccnc2)nc1)N1CCn2ccnc2C1 [Example 8]	7.43
C[C@@H]1CN(C(=O)c2cnc(NC3(c4cncnc4)CC3)nc2)C[C@H](C)O1 [Example 67]	5.37
CC(=O)N1CCN(C(=O)c2cnc(NCc3cccnc3)nc2)CC1 [Example 24]	6.13
C[C@H]1CN(C(=O)c2cnc(NC3(c4cncnc4)CC3)nc2)C[C@]1(C)CO (relative stereo) [Example 62]	8.41
O=C(c1cnc(NC2(c3cncnc3)CC2)nc1)N1CCC2(CCCC2)CC1 [Example 49]	8.12
CN1C[C@@H]2C[C@H]1CN2C(=O)c1cnc(NCc2cnccn2)nc1 [Example 112]	< 4.72
CN1CC2(CCN(C(=O)c3cnc(NC4(c5cncnc5)CC4)nc3)CC2)OC1=O [Example 57]	6.21
CC(=O)NC1CCCN(C(=O)c2cnc(NCc3cccnc3)nc2)C1 (centres unmarked) [Example 23]	6.21
O=C(c1cnc(NC2(c3cncnc3)CC2)nc1)N1CCC(c2cc[nH]n2)C1 (centres unmarked) [Example 43]	8.87
O=C(c1cnc(NC2(c3cncnc3)CC2)nc1)N1C2CCC1COC2 [Example 97]	6.46
O=C(c1cnc(NCc2cccnc2)nc1)N1CCC(F)(CO)CC1 [Example 17]	6.48
NC(=O)C1CCCN(C(=O)c2cnc(NCc3cccnc3)nc2)C1 (centres unmarked) [Example 13]	6.99
CCC1(C)CCN(C(=O)c2cnc(NC3(c4cncnc4)CC3)nc2)CC1 [Example 46]	8.20
CCOC1CCN(C(=O)c2cnc(NCc3cccnc3)nc2)C1 (centres unmarked) [Example 10]	7.12
O=C(c1cnc(NC2(c3cncnc3)CC2)nc1)N1CCN2CCCCCC2C1 (centres unmarked) [Example 41]	7.35
O=C(c1cnc(NCc2cncnc2)nc1)N1CCCCC1 [Example 187]	7.08
CCC1(CO)CCN(C(=O)c2cnc(NCc3cccnc3)nc2)C1 (centres unmarked) [Example 4]	8.07
O=C(c1cnc(NC2(c3cncnc3)CC2)nc1)N1CCOC2(CCCC2)C1 [Example 52]	7.22
O=C(c1cnc(NCc2cccnc2)nc1)N1Cc2ccccc2C1 [Example 19]	6.39
O=C(c1cnc(NC2(c3cncnc3)CC2)nc1)N1C[C@H]2CC[C@@H](C1)O2 [Example 33]	6.97
O=C(c1cnc(NCc2cccnc2)nc1)N1CCOCC(O)C1 (centres unmarked) [Example 20]	6.34

Other lines, results leading:

pIC50	SMILES
8.11	O=C(c1cnc(NCc2cncnc2)nc1)N1CCC2(CCOCC2)C1 [Example 185]
7.29	CCOCC1(F)CCN(C(=O)c2cnc(NC3(c4cncnc4)CC3)nc2)CC1 [Example 92]
< 4.75	Cc1nc(NCc2cnccn2)ncc1C(=O)N1CCC2(CCOCC2)C1 [Example 139]
7.39	O=C(c1cnc(NC2(c3cncnc3)CC2)nc1)N1CCCC(F)C1 (centres unmarked) [Example 93]
7.97	N#CC1CCCN(C(=O)c2cnc(NC3(c4cncnc4)CC3)nc2)C1 (centres unmarked) [Example 195]
5.87	O=C(c1cnc(NC2(c3cncnc3)CC2)nc1)N1CCC(C2(O)CCCC2)CC1 [Example 101]
5.63	Cc1nc(NC2(c3cncnc3)CC2)ncc1C(=O)N1CCC2(CCOCC2)C1 [Example 136]
8.61	CCOC1CCCN(C(=O)c2cnc(NC3(c4cncnc4)CC3)nc2)C1 (centres unmarked) [Example 104]
6.23	C[C@H](Nc1ncc(C(=O)N2CC3CN(C)CC3C2)cn1)c1cnccn1 (some centres unmarked) [Example 127]
6.91	C[C@@H]1CCCN1C(=O)c1cnc(NC2(c3cncnc3)CC2)nc1 [Example 76]
7.24	O=C(c1cnc(NCc2cncnc2C(F)(F)F)nc1)N1CC2(CCOCC2)C1 [Example 167]
8.66	CCC1(OC)CCN(C(=O)c2cnc(NC3(c4cncnc4)CC3)nc2)C1 (centres unmarked) [Example 192]
7.56	Cc1cnc(CNc2ncc(C(=O)N3CCC4(CCOCC4)C3)cn2)cn1 [Example 164]
7.68	C[C@H](Nc1ncc(C(=O)N2CCN3CCC[C@@H]3C2)cn1)c1cnccn1 [Example 114]
7.52	CCC1(CO)CCN(C(=O)c2cnc(NC3(c4cncnc4)CC3)nc2)CC1 [Example 95]
6.46	O=C(c1cnc(NC2(c3cncnc3)CC2)nc1)N1CCC(O)(C(F)(F)F)CC1 [Example 90]
7.51	O=C(c1cnc(NC2(c3cncnc3)CC2)nc1)N1CCCC(CO)C1 (centres unmarked) [Example 106]

pIC50	SMILES
5.29	O=C(Nc1ncc(C(=O)N2CCC3(CCOCC3)C2)cn1)c1cnccn1 [Example 204, N-[5-(8-oxa-2-azaspiro[4.5]dec-2-ylcarbonyl)pyrimidin-2-yl]pyrazine-2-carboxamide]
9.13	CC(C)(Nc1ncc(C(=O)N2CC3(CCOCC3)C2)cn1)c1cncnc1 [Example 144]
7.26	CC1(CO)CCN(C(=O)c2cnc(NC3(c4cncnc4)CC3)nc2)CC1 [Example 83]
9.13	CC(Nc1ncc(C(=O)N2CCC3(CCOCC3)C2)cn1)c1cncnc1 (centres unmarked) [Example 183]
8.09	Cc1ccc(C(C)Nc2ncc(C(=O)N3CCC4(CCOCC4)C3)cn2)nc1 (centres unmarked) [Example 161]
7.69	O=C(c1cnc(NC2(c3cncnc3)CC2)nc1)N1CCC(O)C(C(F)(F)F)C1 (centres unmarked) [Example 94]
6.50	COC1CCOC2(CCN(C(=O)c3cnc(NC4(c5cncnc5)CC4)nc3)CC2)C1 (centres unmarked) [Example 91]
8.44	O=C(c1cnc(NC2(c3cncnc3)CC2)nc1)N1CCCC(C(F)(F)F)C1 (centres unmarked) [Example 74]
7.39	O=C(c1cnc(NC2(c3cncnc3)CC2)nc1)N1CC2(CC(O)C2)C1 [Example 102]
7.50	O=C(c1cnc(NC2(c3cncnc3)CC2)nc1)N1CCC[C@@]2(CCCC[C@@H]2O)C1 [Example 77]
6.23	C[C@@H]1CN(C(=O)c2cnc(NC3(c4cncnc4)CC3)nc2)CCO1 [Example 99]
6.70	O=C(c1cnc(NCCc2cncnc2)nc1)N1CCC2(CCOCC2)C1 [Example 181]
7.18	O=C(c1cnc(NCc2cnccn2)nc1)N1CCN2CCC[C@H]2C1 [Example 129]
5.96	O=C(c1cnc(OCc2cncnc2)nc1)N1CCC2(CCOCC2)C1 [Example 203, 8-oxa-2-azaspiro[4.5]dec-2-yl[2-(pyrimidin-5-ylmethoxy)pyrimidin-5-yl]methanone]
6.08	C[C@@H](Nc1ncc(C(=O)N2CCC3(CCOCC3)C2)cn1)c1ccncn1 [Example 156]
9.02	C[C@H](Nc1ncc(C(=O)N2CC3(CCOCC3)C2)cn1)c1cncnc1 [Example 151]
